Laboratory results from patent US11413266B2, “Use of cannabinoids in the treatment of inflammatory skin diseases” (GW Pharma Limited, priority 2015, dated 2022).

Experiments:
[1] = test system: MCP-2; test: MCP-2 ELISA in supernatants of poly-(I:C)-stimulated HaCaT cells; type: cell-based, human; conditions: poly-(I:C)-stimulated HaCaT; for MCP-2 production: 6 h; for MCP-2 protein levels: all tested at 5, 10 and 20 μM, data not shown
[2] = test system: IL6; test: PolyIC-induced IL6 release in HPV-Ker keratinocytes, ELISA; type: cell-based, human; conditions: HPV-KER cells
[3] = test system: IL6; test: PolyIC-induced IL6 release in NHEK keratinocytes, ELISA; type: cell-based, human; conditions: NHEKs; for TLR3-activation induced augmented release of IL6: higher concentration
[4] = test system: IL8; test: PolyIC-induced IL8 release in NHEK keratinocytes, ELISA; type: cell-based, human; conditions: NHEKs; for TLR3-activation induced augmented release of IL8: higher concentration
[5] = test system: human epidermal keratinocytes; test: Summary score, TLR3-induced inflammation model (microbial infection-induced dermatitis); type: cell-based
[6] = test system: IL6; test: UVB-induced IL6 mRNA expression in HaCaT keratinocytes, RT-qPCR; type: cell-based, human
[7] = test system: IL6; test: UVB-induced IL6 release in HaCaT keratinocytes, ELISA; type: cell-based, human
[8] = test system: IL8; test: UVB-induced IL8 mRNA expression in HaCaT keratinocytes, RT-qPCR; type: cell-based, human
[9] = test system: IL8; test: UVB-induced IL8 release in HaCaT keratinocytes, ELISA; type: cell-based, human
[10] = test system: IL6; test: UVB-induced IL6 release in NHEK keratinocytes, ELISA; type: cell-based, human; conditions: NHEKs; for UVB-upregulated expression of IL6: only at given (mostly lower) concentrations
[11] = test system: human epidermal keratinocytes; test: Summary score, UVB-induced inflammation model (solar dermatitis); type: cell-based
[12] = test system: HPV-Ker keratinocytes; test: Summary score, SEB/TSLP-induced inflammation model (atopic dermatitis); type: cell-based, human; conditions: for SCORE: sum of +1 anti-inflammatory, 0 no effect, −1 pro-inflammatory, Table 3
[13] = test system: ACD in 2,4-dinitrofluorobenzene (DNFB)-treated wild-type mice; conditions: Karsak et al. 2007, cited from earlier work
[14] = test system: IL8; test: SEB/TSLP-induced IL8 release in HPV-Ker keratinocytes, ELISA; type: cell-based, human; conditions: lower concentrations
[15] = concentration not singled out (0.3 and 3 μM tested)
[16] = 0.3 μM, sum of +1 anti-inflammatory, 0 no effect, −1 pro-inflammatory, Table 1
[17] = 3 μM, sum of +1 anti-inflammatory, 0 no effect, −1 pro-inflammatory, Table 1
[18] = 0.3 μM, sum of +1 anti-inflammatory, 0 no effect, −1 pro-inflammatory, Table 2
[19] = 3 μM, sum of +1 anti-inflammatory, 0 no effect, −1 pro-inflammatory, Table 2

## CCCCCc1cc(O)c2c(c1)OC(C)(CCC=C(C)C)C=C2 (centres unmarked) [CBC, cannabichromene]
[1]; 5 μM
  MCP-2 production: no effect
[1]; 10 μM
  MCP-2 production: no effect
[1]; 20 μM
  MCP-2 production: able to reduce

## CCCc1cc(O)c(C/C=C(\C)CCC=C(C)C)c(O)c1 [CBGV, Cannabigervarin]
[2]; 0.3 μM
  PolyIC-induced IL6 levels: did not affect
[2]; 3 μM
  TLR3-activation induced augmented release of IL6: significantly further augmented
[3]
  TLR3-activation induced augmented release of IL6: significantly further augmented
[4]; [15]
  PolyIC-induced elevated release of IL8: did not affect
[5]; [16]
  SCORE: 5
[5]; [17]
  SCORE: 5
[6]; 0.3 μM
  UVB-upregulated IL6 (RT-qPCR): anti-inflammatory effects
[6]; 3 μM
  UVB-upregulated IL6 (RT-qPCR): anti-inflammatory effects
[7]; 0.3 μM
  UVB-upregulated IL6 (ELISA): pro-inflammatory effects
[7]; 3 μM
  UVB-upregulated IL6 (ELISA): anti-inflammatory effects
[8]; 0.3 μM
  UVB-upregulated IL8 (RT-qPCR): pro-inflammatory effects
[8]; 3 μM
  UVB-upregulated IL8 (RT-qPCR): pro-inflammatory effects
[9]; 0.3 μM
  UVB-upregulated IL8 (ELISA): pro-inflammatory effects
[9]; 3 μM
  UVB-upregulated IL8 (ELISA): pro-inflammatory effects
[10]
  UVB-upregulated expression of IL6: significantly suppress
[11]; [18]
  SCORE: −1
[11]; [19]
  SCORE: 2
[12]; 0.3 μM
  SCORE: −1
[12]; 3 μM
  SCORE: 1
[1]; 10 μM
  MCP-2 production: able to reduce

## CCCCCc1cc(O)c2c(c1)OC(C)(C)[C@@H]1CCC(C)=C[C@@H]21 [THC, tetrahydrocannabinol]
[13]; subcutaneous and topical application
  ACD: attenuated
[13]; vs untreated mice
  ear swelling: significantly decreased
  recruitment of Gr-1 positive granulocytes: reduced

## CCCCCc1cc(O)c(C/C=C(\C)CCC=C(C)C)c(O)c1C(=O)O [CBGA, cannabigerolic acid]
[1]
  MCP-2 protein levels: No effect

## CCCc1cc2c(c(O)c1C(=O)O)[C@@H]1C=C(C)CC[C@H]1C(C)(C)O2 [THCVA, tetrahydrocannabivarinic acid]
[1]
  MCP-2 protein levels: No effect

## C=C(C)[C@@H]1CCC(C)=C[C@H]1c1c(O)cc(CCC)c(C(=O)O)c1O [CBDVA, cannabidivarinic acid]
[1]
  MCP-2 protein levels: No effect

## CCCc1cc(O)c2c(c1)OC(C)(C)[C@@H]1CCC(C)=C[C@@H]21 [THCV, Tetrahydrocannabivarin]
[3]
  TLR3-activation induced augmented release of IL6: significantly further augmented
[3]; low concentration
  PolyIC-induced IL6 level: did not affect
[4]
  TLR3-activation induced augmented release of IL8: did not affect
[4]; low concentration
  PolyIC-induced elevated release of IL8: significantly suppressed
[5]; [16]
  SCORE: 7
[5]; [17]
  SCORE: 7
[6]; 3 μM
  UVB-upregulated IL6 (RT-qPCR): anti-inflammatory effects
[7]; 0.3 μM
  UVB-upregulated IL6 (ELISA): anti-inflammatory effects
[7]; 3 μM
  UVB-upregulated IL6 (ELISA): pro-inflammatory effects
[8]; 0.3 μM
  UVB-upregulated IL8 (RT-qPCR): anti-inflammatory effects
[9]; 0.3 μM
  UVB-upregulated IL8 (ELISA): anti-inflammatory effects
[9]; 3 μM
  UVB-upregulated IL8 (ELISA): pro-inflammatory effects
[10]; higher concentrations
  UVB-upregulated IL6: pro-inflammatory effects
[11]; [18]
  SCORE: 4
[11]; [19]
  SCORE: 0
[12]; 0.3 μM
  SCORE: −1
[12]; 3 μM
  SCORE: 1
[1]; 5 μM
  MCP-2 production: no effect
[1]; 10 μM
  MCP-2 production: able to reduce
[1]; 20 μM
  MCP-2 production: able to reduce

## C=C(C)[C@@H]1CCC(C)=C[C@H]1c1c(O)cc(CCC)cc1O [CBDV, Cannabidivarin]
[3]; [15]
  PolyIC-induced elevated release of IL6: did not affect
[4]
  TLR3-activation induced augmented release of IL8: significantly further augmented
[5]; 0.3 µM
  SCORE: 7
[5]; 3 µM
  SCORE: 5
[6]; 0.3 μM
  UVB-upregulated IL6 (RT-qPCR): anti-inflammatory effects
[6]; 3 μM
  UVB-upregulated IL6 (RT-qPCR): anti-inflammatory effects
[7]; 3 μM
  UVB-upregulated IL6 (ELISA): anti-inflammatory effects
[8]; 3 μM
  UVB-upregulated IL8 (RT-qPCR): anti-inflammatory effects
[9]; 3 μM
  UVB-upregulated IL8 (ELISA): anti-inflammatory effects
[10]
  UVB-upregulated expression of IL6: significantly suppress
[11]; 0.3 µM
  SCORE: 2
[11]; 3 µM
  SCORE: 5
[14]
  SEB/TSLP-induced up-regulation of IL8 release: did not induce any significant effect
[12]; 0.3 μM
  SCORE: 0
[12]; 3 μM
  SCORE: 1
[12]; conclusion on Table 3
  Overall action in the SEB/TSLP-induced inflammation model: most effective
